Laboratory results taken from PMC12587552, “A nitrogen-containing diphyllin derivative C156-P1 exhibited broad-spectrum antiviral activity against Flaviviridae viruses by preventing endosomal acidification” (Antimicrobial Agents and Chemotherapy, 2025).
Where two headings read alike, the source gives them in different places.

Key:
[1] = test system: endosomal acidification in A549 cells; assay: Endosomal acidification, LysoSensor DND-189 flow cytometry; type: cell-based, human; details: A549 cells pretreated 12 h; C156-P1 100 nM or 1 µM, Baf-A1 100 nM
V-ATPase = V-ATPase (Homo sapiens, UniProt Q9Y487); assay: ATPase activity assay on lysate of treated cells; type: cell-based; details: A549 cells treated 24 h; C156-P1 100 nM or 1000 nM, PHY34 100 nM, Baf-A1 100 nM; 2 µg total cell protein
DENV-2 [2] = test system: DENV-2
in vitro = details: human
DENV-2 [3] = assay: microbe, parasite or virus in culture; details: Dengue virus, DENV2, A549, 48 h, read-out: EC50 against DENV-2
[4] = test system: other Flaviviridae viruses; details: cited from earlier work
ATP6V0A2 = ATP6V0A2 mRNA level by RT-qPCR; type: cell-based, human; details: A549 cells, 100 nM, 48 h
ZIKV [5] = details: cited from earlier work
ZIKV [6] = test system: ZIKV; design: method as in PMID 29033372, PMID 28694387; details: cited from earlier work
DENV-2 [7] = test system: DENV-2; design: method as in PMID 30125275; details: read-out: EC50 against DENV-2 infection; cited from earlier work

Chain of V-ATPase (Q9Y487 whole entry, looked up): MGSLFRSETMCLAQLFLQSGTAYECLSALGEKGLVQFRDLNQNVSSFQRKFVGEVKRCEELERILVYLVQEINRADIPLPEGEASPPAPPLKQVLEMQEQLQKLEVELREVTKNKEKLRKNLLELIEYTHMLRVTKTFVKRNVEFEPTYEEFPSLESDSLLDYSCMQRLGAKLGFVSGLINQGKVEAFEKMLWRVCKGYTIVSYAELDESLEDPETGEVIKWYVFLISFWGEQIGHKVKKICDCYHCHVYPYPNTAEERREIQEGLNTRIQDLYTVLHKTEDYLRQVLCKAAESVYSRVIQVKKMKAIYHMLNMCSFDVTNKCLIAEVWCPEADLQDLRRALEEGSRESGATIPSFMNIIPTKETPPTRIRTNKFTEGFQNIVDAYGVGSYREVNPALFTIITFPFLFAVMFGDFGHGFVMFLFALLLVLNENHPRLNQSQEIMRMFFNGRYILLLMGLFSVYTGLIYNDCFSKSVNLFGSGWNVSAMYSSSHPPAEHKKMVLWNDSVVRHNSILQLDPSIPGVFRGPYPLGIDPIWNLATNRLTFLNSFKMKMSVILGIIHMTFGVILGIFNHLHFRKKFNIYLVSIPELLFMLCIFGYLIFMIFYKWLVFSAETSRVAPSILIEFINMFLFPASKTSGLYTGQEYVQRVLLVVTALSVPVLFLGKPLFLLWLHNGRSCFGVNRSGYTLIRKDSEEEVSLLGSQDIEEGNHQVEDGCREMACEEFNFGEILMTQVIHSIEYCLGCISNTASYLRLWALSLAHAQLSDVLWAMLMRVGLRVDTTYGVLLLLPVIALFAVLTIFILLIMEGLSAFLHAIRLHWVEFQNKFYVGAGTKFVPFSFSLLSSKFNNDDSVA

CO/C1=C\C(C)=C\[C@@H](C)[C@@H](O)[C@@H](C)C/C(C)=C/C=C/[C@H](OC)[C@@H]([C@@H](C)[C@@H](O)[C@H](C)[C@@]2(O)C[C@@H](O)[C@H](C)[C@@H](C(C)C)O2)OC1=O [Baf-A1, bafilomycin A1]
Endosomal acidification (FITC intensity of LysoSensor DND-189) [1]: shifted the peak of FITC leftward
V-ATPase activity (V-ATPase): significantly reduced V-ATPase activity

COc1cc2c(O)c3c(c(-c4ccc5c(c4)OCO5)c2cc1OC)C(=O)OC3 [DP, diphyllin]
SI (ratio of CC50 to EC50) (DENV-2 [2]; A549 cells, DENV-2): 39.98
CC50 (in vitro): 16000 nM
EC50 (DENV-2 [3]): 401 nM

COc1cc(N[C@H](C(=O)c2c[nH]c3ccc(OC(F)(F)F)cc23)c2ccc(Cl)cc2OC)cc(S(C)(=O)=O)c1 [JNJ-1802]
Inhibitory effects against other Flaviviridae viruses [4]: lacks inhibitory effects

COc1cc2c(O[C@@H]3O[C@H](CO)[C@@H]4OC(C)(C)O[C@@H]4[C@H]3O)c3c(c(-c4ccc5c(c4)OCO5)c2cc1OC)C(=O)OC3 [PHY34, reference compound]
DENV-2 infection (NS3 protein, Western blot) (DENV-2 [2]; A549 cells, MOI = 2, 48 h, indicated concentrations): inhibited endosomal acidification and DENV-2 infection in a dose-dependent manner
ATP6V0A2 mRNA expression (ATP6V0A2): decrease in ATP6V0A2 mRNA expression
Endosomal acidification (FITC intensity of LysoSensor DND-189) [1]: inhibited endosomal acidification
V-ATPase activity (V-ATPase): significantly reduced V-ATPase activity

COc1cc2c(O[C@@H]3O[C@H](C)[C@@H](O)[C@H](O)[C@H]3O)c3c(c(-c4ccc5c(c4)OCO5)c2cc1OC)C(=O)OC3 [PTA, patentiflorin A, reference compound]
SI (ratio of CC50 to EC50) (DENV-2 [2]): 5.12
CC50 (in vitro): 195 nM
EC50 (DENV-2 [3]): 38.1 nM

CCN(CC)CCCC(C)Nc1ccnc2cc(Cl)ccc12 (centres unmarked) [chloroquine]
Inhibitory concentrations necessary for ZIKV infection in cell culture (ZIKV [5]): micromolar range
Inhibitory concentration (dose) required in mice against ZIKV (ZIKV [6]): 100 mg/kg

CCN(CCO)CCCC(C)Nc1ccnc2cc(Cl)ccc12 (centres unmarked) [hydroxychloroquine]
Inhibitory concentration (dose) required in mice against ZIKV (ZIKV [6]): 40 mg/kg

O=C(Nc1ccc([N+](=O)[O-])cc1Cl)c1cc(Cl)ccc1O [niclosamide]
EC50 (DENV-2 [7]): ~10000 nM
